Test results taken from ChEMBL document CHEMBL5625219, “Design, synthesis fusidic acid derivatives alleviate acute lung injury via inhibiting MAPK/NF-κB/NLRP3 pathway” (Eur J Med Chem, 2023).

How the values were obtained:
RAW264.7 = experiment: Cytotoxicity against mouse RAW264.7 cells assessed as reduction in cell viability at 30 uM incubated for 24 hrs by MTT assay relative to control; assay type: toxicity, cell-based; settings: raw264.7, 24 h
[1] = Cytotoxicity against mouse RAW264.7 cells assessed as inhibition of cell growth incubated for 24 hrs by MTT assay; assay type: toxicity, cell-based

Structure (SMILES) | Activity (RAW264.7) [%] | IC50 at 24 h [1] [µM]
COc1ccc(Cn2cc(COC(=O)/C(CCC=C(C)C)=C3\[C@@H](OC(C)=O)C[C@@]4(C)[C@H]3C[C@@H](O)[C@H]3[C@@]5(C)CC[C@@H](O)[C@@H](C)[C@@H]5CC[C@@]34C)nn2)cc1 | 100.31 | 110
CC(=O)O[C@H]1C[C@@]2(C)[C@@H](C[C@@H](O)[C@H]3[C@@]4(C)CC[C@@H](O)[C@@H](C)[C@@H]4CC[C@@]32C)/C1=C(\CCC=C(C)C)C(=O)OCc1cc(-c2ccccc2)no1 | 104.11 | 93
CC(=O)O[C@H]1C[C@@]2(C)[C@@H](C[C@@H](O)[C@H]3[C@@]4(C)CC[C@@H](O)[C@@H](C)[C@@H]4CC[C@@]32C)/C1=C(\CCC=C(C)C)C(=O)OCc1cc(-c2ccc(C)cc2)no1 | 104.48 | 75.9
CC(=O)O[C@H]1C[C@@]2(C)[C@@H](C[C@@H](O)[C@H]3[C@@]4(C)CC[C@@H](O)[C@@H](C)[C@@H]4CC[C@@]32C)/C1=C(\CCC=C(C)C)C(=O)OCc1cn(-c2ccc(Cl)c(Cl)c2)nn1 | 104.17 | 56.1
CC(=O)O[C@H]1C[C@@]2(C)[C@@H](C[C@@H](O)[C@H]3[C@@]4(C)CC[C@@H](O)[C@@H](C)[C@@H]4CC[C@@]32C)/C1=C(\CCC=C(C)C)C(=O)OCc1cn(Cc2ccc([N+](=O)[O-])cc2)nn1 | 101.85 | 56.8
CC(=O)O[C@H]1C[C@@]2(C)[C@@H](C[C@@H](O)[C@H]3[C@@]4(C)CC[C@@H](O)[C@@H](C)[C@@H]4CC[C@@]32C)/C1=C(\CCC=C(C)C)C(=O)OCc1cn(Cc2ccc(F)cc2)nn1 | 103.74 | 68.7
CC(=O)O[C@H]1C[C@@]2(C)[C@@H](C[C@@H](O)[C@H]3[C@@]4(C)CC[C@@H](O)[C@@H](C)[C@@H]4CC[C@@]32C)/C1=C(\CCC=C(C)C)C(=O)OCc1nnc(-c2ccccc2)o1 | 102.94 | 40.1
COc1cc(-c2nnc(COC(=O)/C(CCC=C(C)C)=C3\[C@@H](OC(C)=O)C[C@@]4(C)[C@H]3C[C@@H](O)[C@H]3[C@@]5(C)CC[C@@H](O)[C@@H](C)[C@@H]5CC[C@@]34C)o2)cc(OC)c1OC | 97.84 | 129
CC(=O)O[C@H]1C[C@@]2(C)[C@@H](C[C@@H](O)[C@H]3[C@@]4(C)CC[C@@H](O)[C@@H](C)[C@@H]4CC[C@@]32C)/C1=C(\CCC=C(C)C)C(=O)OCc1cc(-c2ccc(Cl)c(Cl)c2)no1 | 94.05 | 44.6
CC(=O)O[C@H]1C[C@@]2(C)[C@@H](C[C@@H](O)[C@H]3[C@@]4(C)CC[C@@H](O)[C@@H](C)[C@@H]4CC[C@@]32C)/C1=C(\CCC=C(C)C)C(=O)OCc1cc(-c2ccc(Br)cc2)no1 | 96.29 | 40.9
COc1cc(-n2cc(COC(=O)/C(CCC=C(C)C)=C3\[C@@H](OC(C)=O)C[C@@]4(C)[C@H]3C[C@@H](O)[C@H]3[C@@]5(C)CC[C@@H](O)[C@@H](C)[C@@H]5CC[C@@]34C)nn2)cc(OC)c1OC | 98.92 | 120
CC(=O)O[C@H]1C[C@@]2(C)[C@@H](C[C@@H](O)[C@H]3[C@@]4(C)CC[C@@H](O)[C@@H](C)[C@@H]4CC[C@@]32C)/C1=C(\CCC=C(C)C)C(=O)OCc1cn(Cc2ccc(Cl)c(Cl)c2)nn1 | 100.62 | 49.8
COc1ccc(-c2cc(COC(=O)/C(CCC=C(C)C)=C3\[C@@H](OC(C)=O)C[C@@]4(C)[C@H]3C[C@@H](O)[C@H]3[C@@]5(C)CC[C@@H](O)[C@@H](C)[C@@H]5CC[C@@]34C)on2)cc1OC | 100.7 | 87.3
CC(=O)O[C@H]1C[C@@]2(C)[C@@H](C[C@@H](O)[C@H]3[C@@]4(C)CC[C@@H](O)[C@@H](C)[C@@H]4CC[C@@]32C)/C1=C(\CCC=C(C)C)C(=O)OCc1cc(-c2ccc(F)cc2)no1 | 103.63 | 62.4
COc1ccc(-n2cc(COC(=O)/C(CCC=C(C)C)=C3\[C@@H](OC(C)=O)C[C@@]4(C)[C@H]3C[C@@H](O)[C@H]3[C@@]5(C)CC[C@@H](O)[C@@H](C)[C@@H]5CC[C@@]34C)nn2)cc1OC | 102.78 | 76.6
CC(=O)O[C@H]1C[C@@]2(C)[C@@H](C[C@@H](O)[C@H]3[C@@]4(C)CC[C@@H](O)[C@@H](C)[C@@H]4CC[C@@]32C)/C1=C(\CCC=C(C)C)C(=O)OCc1cn(-c2ccc(F)cc2)nn1 | 100.85 | 46.5
CC(=O)O[C@H]1C[C@@]2(C)[C@@H](C[C@@H](O)[C@H]3[C@@]4(C)CC[C@@H](O)[C@@H](C)[C@@H]4CC[C@@]32C)/C1=C(\CCC=C(C)C)C(=O)OCc1cn(-c2ccc(Cl)cc2)nn1 | 101.39 | 119

Structure (SMILES) | Activity (RAW264.7) [%] | IC50 at 24 h [1] [µM]
COc1ccc(-c2cc(COC(=O)/C(CCC=C(C)C)=C3\[C@@H](OC(C)=O)C[C@@]4(C)[C@H]3C[C@@H](O)[C@H]3[C@@]5(C)CC[C@@H](O)[C@@H](C)[C@@H]5CC[C@@]34C)on2)cc1 | 97.68 | 77.2
COc1ccc(-c2nnc(COC(=O)/C(CCC=C(C)C)=C3\[C@@H](OC(C)=O)C[C@@]4(C)[C@H]3C[C@@H](O)[C@H]3[C@@]5(C)CC[C@@H](O)[C@@H](C)[C@@H]5CC[C@@]34C)o2)cc1 | 101.7 | 114
CC(=O)O[C@H]1C[C@@]2(C)[C@@H](C[C@@H](O)[C@H]3[C@@]4(C)CC[C@@H](O)[C@@H](C)[C@@H]4CC[C@@]32C)/C1=C(\CCC=C(C)C)C(=O)OCc1nnc(-c2ccc(F)cc2)o1 | 102.47 | 47.9
CC(=O)O[C@H]1C[C@@]2(C)[C@@H](C[C@@H](O)[C@H]3[C@@]4(C)CC[C@@H](O)[C@@H](C)[C@@H]4CC[C@@]32C)/C1=C(\CCC=C(C)C)C(=O)OCc1cn(Cc2ccc(C)cc2)nn1 | 105.96 | 121
COc1cc(-c2cc(COC(=O)/C(CCC=C(C)C)=C3\[C@@H](OC(C)=O)C[C@@]4(C)[C@H]3C[C@@H](O)[C@H]3[C@@]5(C)CC[C@@H](O)[C@@H](C)[C@@H]5CC[C@@]34C)on2)cc(OC)c1OC | 95.67 | 50.6
CC(=O)O[C@H]1C[C@@]2(C)[C@@H](C[C@@H](O)[C@H]3[C@@]4(C)CC[C@@H](O)[C@@H](C)[C@@H]4CC[C@@]32C)/C1=C(\CCC=C(C)C)C(=O)OCc1cn(Cc2ccc(Br)cc2)nn1 | 100.93 | 88.7
CC(=O)O[C@H]1C[C@@]2(C)[C@@H](C[C@@H](O)[C@H]3[C@@]4(C)CC[C@@H](O)[C@@H](C)[C@@H]4CC[C@@]32C)/C1=C(\CCC=C(C)C)C(=O)OCc1cn(-c2ccc(Br)cc2)nn1 | 92.58 | 54.5
CC(=O)O[C@H]1C[C@@]2(C)[C@@H](C[C@@H](O)[C@H]3[C@@]4(C)CC[C@@H](O)[C@@H](C)[C@@H]4CC[C@@]32C)/C1=C(\CCC=C(C)C)C(=O)OCc1cn(Cc2ccccc2)nn1 | 98.53 | 88.3
COc1ccc(-n2cc(COC(=O)/C(CCC=C(C)C)=C3\[C@@H](OC(C)=O)C[C@@]4(C)[C@H]3C[C@@H](O)[C@H]3[C@@]5(C)CC[C@@H](O)[C@@H](C)[C@@H]5CC[C@@]34C)nn2)cc1 | 99.38 | 43.6
CC(=O)O[C@H]1C[C@@]2(C)[C@@H](C[C@@H](O)[C@H]3[C@@]4(C)CC[C@@H](O)[C@@H](C)[C@@H]4CC[C@@]32C)/C1=C(\CCC=C(C)C)C(=O)OCc1nnc(-c2ccc([N+](=O)[O-])cc2)o1 | 103.17 | 100
COc1cc(Cn2cc(COC(=O)/C(CCC=C(C)C)=C3\[C@@H](OC(C)=O)C[C@@]4(C)[C@H]3C[C@@H](O)[C@H]3[C@@]5(C)CC[C@@H](O)[C@@H](C)[C@@H]5CC[C@@]34C)nn2)cc(OC)c1OC | 97.45 | 56.1
CC(=O)O[C@H]1C[C@@]2(C)[C@@H](C[C@@H](O)[C@H]3[C@@]4(C)CC[C@@H](O)[C@@H](C)[C@@H]4CC[C@@]32C)/C1=C(\CCC=C(C)C)C(=O)OCc1cn(Cc2ccc(Cl)cc2)nn1 | 90.57 | 72.5
CC(=O)O[C@H]1C[C@@]2(C)[C@@H](C[C@@H](O)[C@H]3[C@@]4(C)CC[C@@H](O)[C@@H](C)[C@@H]4CC[C@@]32C)/C1=C(\CCC=C(C)C)C(=O)OCc1nnc(-c2ccc(Cl)cc2)o1 | 103.01 | 44.3
CC(=O)O[C@H]1C[C@@]2(C)[C@@H](C[C@@H](O)[C@H]3[C@@]4(C)CC[C@@H](O)[C@@H](C)[C@@H]4CC[C@@]32C)/C1=C(\CCC=C(C)C)C(=O)OCc1cc(-c2ccc(Cl)cc2)no1 | 103.94 | 42
CC(=O)O[C@H]1C[C@@]2(C)[C@@H](C[C@@H](O)[C@H]3[C@@]4(C)CC[C@@H](O)[C@@H](C)[C@@H]4CC[C@@]32C)/C1=C(\CCC=C(C)C)C(=O)OCc1cn(-c2ccc([N+](=O)[O-])cc2)nn1 | 101.62 | 120
CC(=O)O[C@H]1C[C@@]2(C)[C@@H](C[C@@H](O)[C@H]3[C@@]4(C)CC[C@@H](O)[C@@H](C)[C@@H]4CC[C@@]32C)/C1=C(\CCC=C(C)C)C(=O)OCc1cn(-c2ccc(C)cc2)nn1 | 96.68 | 89.6
